{"source": "patent US20200190592A1", "about": "“PME-1 AS A BIOMARKER TO PREDICT AND DIAGNOSE AN INCREASED RISK OF ENDOMETRIAL CANCER AND GENE SILENCING OF PME-1 TO INHIBIT EPITHELIAL TO MESENCHYMAL TRANSITION” (Medical Diagnostic Laboratories, L.L.C., priority 2018, published 2020)", "key": {"[1]": {"test_system": "RL95-2 cells", "assay": "Foci forming assay in RL95-2 cells", "format": "cell-based, human", "procedure": "A foci forming assay was used in this study to monitor cell growth. Equal amounts of cells were plated and they were allowed to grow for a determined period of time (see Materials and Methods section for details). The foci that were formed were then stained with the crystal violet dye. Cells were washed […] with PBS prior to visualization. Numbers of foci were counted and results were averaged among different experiments.\nTo determine if the loss of active PME-1 accounted for the observed decrease in foci formation, we first treated RL95-2 cells with siRNA against the 3′-UTR of PPME1 to decrease endogenous levels of PME-1. […] The S156A PME-1 mutant is not capable of demethylating its target, PP2A.\n(§1) 1,000 cells were plated in a six well tissue culture dish in selection media (to include 5 μg/ml puromycin) (InvivoGen). Cells were allowed to adhere and grow in a 5% CO2, 37° C. incubator for 10 to 14 days. Media was replaced every fourth day. Cells were stained with 1% crystal violet (Sigma Aldrich) for five minutes and rinsed with PBS. Colonies were counted and data is presented as the percentage of change compared to the control. All Experiments were repeated at least three times."}, "[2]": {"biological_target": "protein phosphatase 2A (PP2A), endogenous in RL95-2 cells", "assay": "cell-based or functional assay"}, "[3]": {"biological_target": "T1, recombinant PME-1_des3 (Homo sapiens, UniProt Q9Y570)", "T1 sequence (Q9Y570 1-383 limits assumed)": "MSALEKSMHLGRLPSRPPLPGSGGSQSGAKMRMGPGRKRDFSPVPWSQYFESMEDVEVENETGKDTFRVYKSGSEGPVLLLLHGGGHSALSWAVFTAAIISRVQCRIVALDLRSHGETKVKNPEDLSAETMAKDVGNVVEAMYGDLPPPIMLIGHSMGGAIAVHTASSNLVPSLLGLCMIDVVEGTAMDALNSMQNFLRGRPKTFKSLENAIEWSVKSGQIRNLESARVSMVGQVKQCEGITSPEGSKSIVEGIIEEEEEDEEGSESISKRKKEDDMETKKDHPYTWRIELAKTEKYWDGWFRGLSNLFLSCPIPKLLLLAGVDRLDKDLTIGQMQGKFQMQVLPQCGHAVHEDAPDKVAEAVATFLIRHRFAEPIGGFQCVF", "assay": "Thermal melt (thermal shift) assay", "format": "binding", "procedure": "There are several commercially available covalent PME-1 inhibitors that we have analyzed as potential endometrial cancer therapeutics. To confirm that the inhibitors directly bind PME-1, we completed a thermal melt assay. One micromole (1 μmole) of recombinant PME-1_des3, of which the last 3 amino acids are deleted, were pre-incubated with SYBR orange in the presence of 50 μM ABL-127 (a potent covalent PME-1 inhibitor, squares) or 0.05% DMSO (vehicle, circles) for 10 minutes (FIG. 25) at 37° C. We then performed a thermal gradient, increasing the temperature by 2° C. each minute from 37° C. to 95° C. and fluorescent signal was detected at 492-601 nm on a thermal cycler. The increase in Tm from ˜55° C. (PME-1+DMSO, circles) to ˜65° C. (PME-1+ABL-127, squares) indicated thermal stabilization of the PME-1 protein via direct binding of the ABL-127 inhibitor (FIG. 25).\nThe assay was completed by first conducting a 10 min pre-incubation of one μmole of recombinant PME-1des3 with 50 μM ABL127 (Sigma) or vehicle (0.05% DMSO) in the presence of SYBR Orange (1:1,000, v/v, Sigma) at 37° C. in 1×NEB buffer 2 (50 mM NaCl, 10 mM Tris-HCl, 10 mM MgCl2, 1 mM DTT, pH 7.9 at 25° C.), a thermal gradient was performed increasing temperature by 2° C. per minute increments from 37° to 95° C. and fluorescence (492 nm-610 nm) was acquired on a thermal cycler Mx3005P (Stratagene)."}, "[4]": {"test_system": "Ishikawa endometrial cancer cells", "assay": "Foci formation assay in Ishikawa cells", "format": "cell-based, human", "conditions": "DMSO set to 100%", "procedure": "This study was completed in Ishikawa endometrial cancer cells.\nas §1, with “Media was replaced every fourth day.” left out"}, "[5]": {"test_system": "Ishikawa cells", "assay": "Trans-well migration assay", "format": "cell-based, human", "conditions": "24 hr, through collagen towards 30% FBS, vs DMSO", "procedure": "We next asked if PME-1 inhibition led to decreased cell migration by completing a trans-well migration assay. Cells were synchronized for 24 hours in media containing 0% FBS. For this experiment, DMSO was again used as the vehicle control and Ishikawa cells were treated with DMSO (control) or 50 nM ABL-127 or 20 μM AMZ-30 for 24 hr and were allowed to migrate through a collagen-coated well towards the bottom chamber, containing media with 30% FBS.\nThe assay was completed with ECC-1 endometrial carcinoma cell lines following kit instructions Cultrex 96 Well Collagen IV Cell Invasion Assay (cat #3458-096-K). Briefly, cells were serum starved for 24 hours prior to experimentation, then counted and put into the top chamber of a collagen type IV coated Transwell membrane at a concentration of 1×10^6 cells/well in 0% FBS. The bottom chamber contained 30% FBS. Cells were allowed to invade at 37° C. humid chamber incubator for 24 hours. Cells that invaded were analyzed using the kit provided Calcein-AM and fluorescence was read using FluoStar Galaxy."}, "[6]": {"test_system": "RL95-2 cells", "assay": "Colony forming / invasive growth assay in Matrigel", "format": "cell-based, human", "conditions": "RL95-2 in Matrigel, addition of TGF-β (10 ng/ml)", "procedure": "To determine if PME-1 contributes to the more invasive and metastatic phenotypes, we performed a colony forming assay in matrigel.\nThe 3D On Top Matrigel Assay was completed in 24 well dishes as described previously {Lee, 2007 #1577}. Briefly, the bottoms of 24 well dishes were coated with 50 μl BD Matrigel Basement Matrix Phenol Red Free (BD Biosciences cat. #356237) and allowed to solidify at 37° C. 10^5 cells were suspended in 250 μl chilled medium containing either 10 ng/ml of TGF-b or vehicle and allowed to settle at 37° C. for 30 minutes. Chilled medium containing 10% of Matrigel was added by pipetting gently down the sidewall of the well and incubated at 37° C. for ten days changing top medium every second day. Colony counts were performed on the tenth day, averages were taken from three fields of view using a 10× objective. Experiment was repeated three times."}, "[7]": {"test_system": "PPME1", "assay": "qRT-PCR of PPME1 (PME-1) expression in RL95-2 cells", "format": "cell-based, human", "conditions": "TGF-β 24 hours, control cells and +PME-1 cells, normalized to GAPDH", "procedure": "In this study, we transfected RL95-2 cells to express empty vector (Control), over-expressing PME-1 (+PME-1) or expressing shRNA against PME-1 (−PME-1) followed by serum starvation for 24 hours. Afterwards, either vehicle or TGF-β treatment was performed at the end of the 24 hours. TGF-β was used to induce cells to initiate the EMT program. Gene expression analysis was conducted using quantitative real-time PCR.\nUsing RL95-2 endometrial cancer cells, we overexpressed PME-1 (FIG. 21A) or depleted PME-1 with shRNA (FIG. 21B) and confirmed that PME-1 was appropriately expressed.\nTotal RNA was extracted with Qiagen RNAEasy kit from RL95-2 cells. cDNA was synthesized using 500 ng-1 μg of RNA and SuperScript VILO c-DNA mix (Life Technologies). Taqman probes and PCR-mix were purchased from Life Technologies. All samples were run in triplicates. Results are representative of three independent experiments in which genes of interest were normalized to the house-keeping gene, 18S or GAPDH, where fold-change was calculated using the ddCt method."}, "[8]": {"test_system": "PME-1", "assay": "Western blot of PME-1 protein in RL95-2 cells", "format": "cell-based, human", "conditions": "GAPDH loading control", "description": "We prepared RL95-2 cell lines expressing empty vector (control), over-expressing PME-1 (+PME-1), or expressing shRNA against PPME1, the gene that codes for PME-1 protein (−PME-1). Using these cells, we confirmed the appropriate level of PME-1 via real-time RT-PCR (data not shown) and Western blot analysis (FIG. 8). GAPDH was used as a loading control.\nWe also prepared two different shRNAs targeted against PME-1.\nLentivirus was produced in HEK293T cell lines with pLKO shRN vectors (Thermo Scientific, cat. no. RHS4533; Waltham, Mass.) and pCDH-CuO-GFP-Puro vectors (System Biosciences, Inc., cat. no. QM513B-1; Mountain View, Calif.) with pPACKH1 packaging plasmid (System Biosciences, Inc., cat, no. LV050A-1). shRNA sequences are in the Table 2. Lentivirus was collected and concentrated with Peg-IT concentrating solution (System Biosciences, Inc.). 5×10^6 ifu/ml lentivirus was added to cell cultures with growth media and 8 μg/ml PolyBrene (Sigma Aldrich). Media was changed to full growth media after 24 hrs and to selection media containing antibiotic after 48 hrs (5 μg/ml puromycin) (Invivogen) for 10 days.\n15 μg of protein was used for western analysis. […]"}}}
{"compound": "PPME1 siRNA no. 2: siRNA, SEQ ID NO: 5: GTG GAT AGC ATC ACA AGA A, targets 3′-UTR (guide GTGGATAGCATCACAAGAA; listed as DNA, chemistry not given here; listed as Homo sapiens)", "values": [{"measurement": "decrease in foci formed", "setting": "[1]; RL95-2, siRNA followed by empty vector, vs control siRNA with empty vector", "result": 40, "unit": "%"}, {"measurement": "reduction in foci formation", "setting": "[1]; RL95-2, siRNA plus over-expressed S156A mutant PME-1", "result": 40, "unit": "%"}]}
{"compound": "PME-1 over-expressed in RL95-2 cells (+PME-1) (from UniProt Q9Y570 1-386) (enzyme)", "values": [{"measurement": "PP2A activity (phosphatase assay) after over-expression of PME-1 in RL95-2 cells", "setting": "[2]", "result": 90, "unit": "% decrease"}]}
{"compound": "PME-1 (endogenous, RL95-2 cells) (from UniProt Q9Y570 2-386) (enzyme)", "values": [{"measurement": "PP2A activity (phosphatase assay) after shRNA depletion of PME-1 in RL95-2 cells", "setting": "[2]", "result": 30, "unit": "fold"}]}
{"compound": "COC(=O)N1C(=O)C(c2ccccc2)(C2CCCC2)N1C(=O)OC", "note": "(stereo in doubt) [ABL-127, (3R)-Dimethyl 3-cyclopentyl-4-oxo-3-phenyl-1,2-diazetidine-1,2,-dicarboxylate]", "values": [{"measurement": "Tm", "setting": "[3]; 50 μM ABL-127, 10 min pre-incubation at 37° C., PME-1+DMSO ˜55° C.", "result": "~65", "unit": "°C"}, {"measurement": "melting temperature (Tm) and thermal stability of PME-1", "setting": "[3]; binding of ABL-127 vs vehicle", "result": "increases"}, {"measurement": "decrease in the amount of foci formed", "setting": "[4]; 50 nM every 2-3 days for 10 days", "result": "~50", "unit": "%"}, {"measurement": "percentage of cells capable of migrating", "setting": "[5]; 50 nM", "result": "dramatic decrease"}]}
{"compound": "TGF-β [reference compound]", "values": [{"measurement": "colony number", "setting": "[6]", "result": "overall decrease"}, {"measurement": "increase in PME-1 expression", "setting": "[7]", "result": "~2", "unit": "fold"}]}
{"compound": "shPPME1 no. 1: shRNA targeting PPME1, SEQ ID NO: 1: GTACAGCTATGGATGCACTTA, bp 554-574 (guide GTACAGCTATGGATGCACTTA; listed as Homo sapiens)", "values": [{"measurement": "PME-1 levels via Western blot analysis", "setting": "[8]", "result": "significantly decreased"}]}
{"compound": "N#C/C(=C\\c1cccn1S(=O)(=O)c1cccc([N+](=O)[O-])c1)S(=O)(=O)c1ccc(F)cc1", "note": "[AMZ-30, (E)-2-(4-Fluorophenylsulfonyl)-3-(1-(3-nitrophenylsulfonyl)-1H-pyrrol-2-yl)-acrylonitrile]", "values": [{"measurement": "decrease in the amount of foci formed", "setting": "[4]; 25 μM every 2-3 days for 10 days", "result": "~50", "unit": "%"}, {"measurement": "percentage of cells capable of migrating", "setting": "[5]; 20 μM", "result": "dramatic decrease"}]}
